Data published in patent US9556158B2, “Fungicidal 3-[(pyridin-2-ylmethoxyimino)(phenyl)methyl]-2-substituted-1,2,4-oxadiazol-5(2H)-one derivatives” (BAYER INTELLECTUAL PROPERTY GMBH, priority 2011, dated 2017).

Columns and labels:
[1] = system: Plasmopara viticola; assay: Example I: in vivo preventive test on Plasmopara viticola (grapevine); conditions: 144 h, 10 ppm of active ingredient, preventive spray on young plants, evaluated 6 days after inoculation, read-out: Eff. %
Description: In Vivo Preventive Test on Plasmopara viticola (Grapevine)
To produce a suitable preparation of active compound, 1 part by weight of active compound is mixed with the stated amounts of solvent and emulsifier, and the concentrate is diluted with water to the desired concentration.
To test for preventive activity, young plants are sprayed with the preparation of active compound at the stated rate of application. After the spray coating has dried on, the plants are inoculated with an aqueous spore suspension of Plasmopara viticola and then remain for 1 day in an incubation cabinet at approximately 20° C. and a relative atmospheric humidity of 100%. The plant is subsequently placed for 4 days in a greenhouse at approximately 21° C. and a relative atmospheric humidity of approximately 90%. The plants are then misted and placed for 1 day in an incubation cabinet.
The test is evaluated 6 days after the inoculation. 0% means an efficacy which corresponds to that of the untreated control, while an efficacy of 100% means that no disease is observed.

[2] = pH 2.7, LogP, HPLC on reversed phase columns, pH 2.7, 0.1% formic acid in water / acetonitrile gradient
Description: Measurement of log P values was performed according EEC directive 79/831 Annex V.A8 by HPLC (High Performance Liquid Chromatography) on reversed phase columns with the following method:
Measurement of LC-MS was done at pH 2.7 with 0.1% formic acid in water and with acetonitrile (contains 0.1% formic acid) as eluent with a linear gradient from 10% acetonitrile to 95% acetonitrile.
Calibration was done with not branched alkan2-ones (with 3 to 16 carbon atoms) with known log P-values (measurement of log P values using retention times with linear interpolation between successive alkanones). lambda-maX-values were determined using UV-spectra from 200 nm to 400 nm and the peak values of the chromatographic signals.

[3] = system: Phytophthora infestans; assay: whole plant or invertebrate; assay type: in vivo; conditions: in Solanum lycopersicum, 120 h, read-out: % efficacy
[4] = system: Pyricularia oryzae; assay: whole plant or invertebrate; assay type: in vivo; conditions: 144 h, read-out: % efficacy

Compound | pest or weed control at 10 ppm [1] [%] | chromatographic logP [2] | pest or weed control at 500 ppm [3] [%] | pest or weed control at 500 ppm [4] [%]
Cn1oc(=O)nc1/C(=N\OCc1cccc(NCCC2CCCCC2)n1)c1ccccc1 [Example 3, 3-[(Z)-[({6-[(2-cyclohexylethyl)amino]pyridin-2-yl}methoxy)imino](phenyl)methyl]-2-methyl-1,2,4-oxadiazol-5(2H)-one] | 93 | 2.43 |  | 
CC(C)CCOC(=O)Nc1cccc(CON=C(c2cccc(F)c2)c2nc(=O)o[nH]2)n1 [Example 52] |  | 3.83 | 100 | 75
CCCCCOC(=O)Nc1cccc(CON=C(c2ccccc2)c2nc(=O)on2C)n1 [Example 13] | 95 | 3.81 | 100 | 
O=C(COc1ccccc1)Nc1cccc(CON=C(c2cccc(F)c2)c2nc(=O)o[nH]2)n1 [Example 51] |  | 3.21 | 100 | 83
COc1cccc(C(=NOCc2cccc(NC(=O)Cc3cccc(F)c3)n2)c2nc(=O)on2C)c1 [Example 105] |  | 3.09 | 75 | 
CCCCOC(=O)Nc1cccc(CON=C(c2cccc(F)c2)c2nc(=O)o[nH]2)n1 [Example 71] |  | 3.48 | 95 | 
COc1cccc(C(=O)Nc2cccc(CON=C(c3cccc(OC)c3)c3nc(=O)o[nH]3)n2)c1 [Example 63] |  | 3.06 | 80 | 
CCCCCCC(=O)Nc1cccc(CON=C(c2cccc(C)c2)c2nc(=O)on2C)n1 [Example 78] |  | 3.96 | 70 | 
COc1cccc(C(=NOCc2cccc(NC(=O)c3ccc(C)cc3)n2)c2nc(=O)on2C)c1 [Example 106] |  | 3.27 | 90 | 
Cn1oc(=O)nc1/C(=N\OCc1cccc(NC(=O)OCCc2ccccc2)n1)c1ccccc1 [Example 15, 2-phenylethyl {6-[({[(Z)-(2-methyl-5-oxo-2,5-dihydro-1,2,4-oxadiazol-3-yl)(phenyl)methylene]amino}oxy)methyl]pyridin-2-yl}carbamate] | 94 | 3.57 | 99 | 
C#CCCOC(=O)Nc1cccc(CON=C(c2cccc(C)c2)c2nc(=O)on2C)n1 [Example 84] |  | 2.96 | 100 | 
Cc1cccc(C(=O)Nc2cccc(CON=C(c3cccc(F)c3)c3nc(=O)o[nH]3)n2)c1 [Example 75] |  | 3.35 | 98 | 
CCCCOC(=O)Nc1cccc(CON=C(c2cccc(OC)c2)c2nc(=O)o[nH]2)n1 [Example 66] |  | 3.42 | 70 | 
Cc1cccc(C(=NOCc2cccc(NC(=O)c3ccc(F)cc3)n2)c2nc(=O)on2C)c1 [Example 87] |  | 3.33 | 75 | 
CCCCC(=O)Nc1cccc(CON=C(c2cccc(F)c2)c2nc(=O)o[nH]2)n1 [Example 72] |  | 2.98 | 85 | 
COc1cccc(C(=NOCc2cccc(NC(=O)C(C)Oc3ccccc3)n2)c2nc(=O)o[nH]2)c1 (centres unmarked) [Example 44] |  | 3.39 | 100 | 83
CCCCCCC(=O)Nc1cccc(CON=C(c2cccc(OC)c2)c2nc(=O)o[nH]2)n1 [Example 50] |  | 3.71 | 100 | 
C#CCCOC(=O)Nc1cccc(CON=C(c2cccc(OC)c2)c2nc(=O)on2C)n1 [Example 96] |  | 2.75 | 90 | 
Cn1oc(=O)nc1/C(=N\OCc1cccc(NC(=O)OC(C)(C)C)n1)c1cccc(F)c1 [Example 20, tert-butyl {6-[({[(Z)-(2-methyl-5-oxo-2,5-dihydro-1,2,4-oxadiazol-3-yl)(3-fluorophenyl)methylene]amino}oxy)methyl]pyridin-2-yl}carbamate] | 74 | 3.46 | 100 | 81
CCCCCC(=O)Nc1cccc(CON=C(c2cccc(F)c2)c2nc(=O)o[nH]2)n1 [Example 68] |  | 3.37 | 98 | 
Cn1oc(=O)nc1C(=NOCc1cccc(NC(=O)SC(C)(C)C)n1)c1ccccc1 [Example 39] |  | 3.73 | 99 | 
C#CCOC(=O)Nc1cccc(CON=C(c2cccc(F)c2)c2nc(=O)o[nH]2)n1 [Example 46] |  | 2.69 | 100 | 83
CCCCOC(=S)Nc1cccc(CON=C(c2ccccc2)c2nc(=O)on2C)n1 [Example 43] |  | 3.89 | 99 | 
CC#CCOC(=O)Nc1cccc(CON=C(c2cccc(F)c2)c2nc(=O)o[nH]2)n1 [Example 65] |  | 2.94 | 100 | 

Compound | pest or weed control at 10 ppm [1] [%] | chromatographic logP [2] | pest or weed control at 500 ppm [3] [%] | pest or weed control at 500 ppm [4] [%]
Cn1oc(=O)nc1C(=NOCc1cccc(N)n1)c1cccc(F)c1 [Example 23] |  | 0.99 | 98 | 
Cc1cccc(C(=NOCc2cccc(NC(=O)OC3CCCCC3)n2)c2nc(=O)on2C)c1 [Example 30] |  | 4.11 | 78 | 
O=C(Cc1cccc(F)c1)Nc1cccc(CON=C(c2cccc(F)c2)c2nc(=O)o[nH]2)n1 [Example 74] |  | 3.13 | 85 | 
CC#CCOC(=O)Nc1cccc(CON=C(c2cccc(C)c2)c2nc(=O)on2C)n1 [Example 107] |  | 3.13 | 93 | 
CCCCOC(=O)Nc1cccc(CON=C(c2ccccc2)c2nc(=O)on2C)n1 [Example 14] | 94 | 3.39 | 100 | 
C#CCC(C)OC(=O)Nc1cccc(CON=C(c2cccc(F)c2)c2nc(=O)on2C)n1 (centres unmarked) [Example 99] |  | 3.09 | 100 | 
CCCCC(=O)Nc1cccc(CON=C(c2cccc(C)c2)c2nc(=O)on2C)n1 [Example 60] |  | 3.19 | 89 | 
CCCCCOC(=O)Nc1cccc(CON=C(c2cccc(C)c2)c2nc(=O)on2C)n1 [Example 56] |  | 4.11 | 83 | 
CCCCOC(=O)Nc1cccc(CON=C(c2cccc(C)c2)c2nc(=O)on2C)n1 [Example 58] |  | 3.69 | 75 | 
COc1ccc(CC(=O)Nc2cccc(CON=C(c3cccc(F)c3)c3nc(=O)o[nH]3)n2)cc1 [Example 73] |  | 3 | 95 | 
CCCCCC(=O)Nc1cccc(CON=C(c2cccc(OC)c2)c2nc(=O)o[nH]2)n1 [Example 53] |  | 3.31 | 95 | 75
C#CCC(C)OC(=O)Nc1cccc(CON=C(c2cccc(C)c2)c2nc(=O)on2C)n1 (centres unmarked) [Example 83] |  | 3.25 | 94 | 
COc1cccc(C(=NOCc2cccc(NC(=O)OCCC(C)C)n2)c2nc(=O)on2C)c1 [Example 101] |  | 3.78 | 70 | 
O=C(CCc1ccccc1)Nc1cccc(CON=C(c2cccc(F)c2)c2nc(=O)o[nH]2)n1 [Example 47] |  | 3.29 | 100 | 75
COc1cccc(C(=NOCc2cccc(NC(=O)OCc3ccccc3)n2)c2nc(=O)on2C)c1 [Example 104] |  | 3.42 | 88 | 
Cc1cccc(C(=NOCc2cccc(NC(=O)c3ccccc3)n2)c2nc(=O)on2C)c1 [Example 82] |  | 3.21 | 75 | 
C#CCC(C)OC(=O)Nc1cccc(CON=C(c2cccc(OC)c2)c2nc(=O)on2C)n1 (centres unmarked) [Example 94] |  | 3.02 | 85 | 
Cc1cccc(C(=NOCc2cccc(N)n2)c2nc(=O)on2C)c1 [Example 31] |  | 1.17 | 93 | 
Cc1cccc(C(=NOCc2cccc(NC(=O)C(C)Oc3ccccc3)n2)c2nc(=O)on2C)c1 (centres unmarked) [Example 103] |  | 3.64 | 80 | 
C#CCCOC(=O)Nc1cccc(CON=C(c2cccc(F)c2)c2nc(=O)o[nH]2)n1 [Example 49] |  | 2.8 | 93 | 83
CCCCC(=O)Nc1cccc(CON=C(c2cccc(OC)c2)c2nc(=O)o[nH]2)n1 [Example 54] |  | 2.96 | 100 | 83
COc1ccc(CC(=O)Nc2cccc(CON=C(c3cccc(C)c3)c3nc(=O)on3C)n2)cc1 [Example 100] |  | 3.19 | 100 | 
CCCCCOC(=O)Nc1cccc(CON=C(c2cccc(F)c2)c2nc(=O)o[nH]2)n1 [Example 69] |  | 3.89 | 100 | 
